{"source": "ChEMBL document CHEMBL2203271", "about": "“Pharmaceutical composition comprising indole compound for treatment of diseases associated with oxidative stress: patent highlight” (ACS Med Chem Lett, 2012)", "tested_on": "H9c2", "assay": "Cytoprotective activity against tBOOH-induced oxidative stress in rat H9c2 cells after 2 hrs by SRB assay", "assay_type": "functional, cell-based", "details": "H9c2, 2 h", "data": [{"compound": "c1ccc(-c2nc3cccc(NC4CCOC4)c3[nH]2)cc1", "note": "(configuration not stated)", "values": [{"measurement": "IC50", "value": 2000, "unit": "nM"}]}, {"compound": "c1ccc(-c2nc3cccc(NC4CCCC4)c3[nH]2)cc1", "values": [{"measurement": "IC50", "value": 600, "unit": "nM"}]}]}
